Tests used:
Type in all cases: functional
Design in all cases: concentration or dose not given beside the values
[1] = system: Plasmodium falciparum; assay: MMV: P. falciparum NF54 functionally mature Stage V gametocytes were incubated for 24 hr in the presence of the test compounds. Gamete formation was then triggered by addition of 2uM xantheurenic acid and temperature decrease to ~20C. Female gamete formation was recorded 24 hr later by automated microscopy detection of surface labelling of female gametes with a Cy3-conjugated antibody reactive to Pfs25. All compounds were tested in 4 independent experiments and data presented here is the mean.; conditions: NF54, 24 h
[2] = system: Plasmodium berghei; assay: MMV: P. berghei-infected blood was withdrawn from mice by cardiac pucture before being immediately added to ookinete culture medium containing test compounds. 26 hr later, GFP-positive ookinetes were identified and counted by automated microscopy. All compounds were tested in 4 independent experiments and data presented here is the mean.
[3] = system: Plasmodium falciparum; assay: MMV: P. falciparum NF54 functionally mature Stage V gametocytes were incubated for 24 hr in the presence of the test compounds. Gamete formation was then triggered by addition of 2uM xantheurenic acid and temperature decrease to ~20C. Male gamete exflagellation was recorded and analysed by automated microscopy after 20 min. All compounds were tested in 4 independent experiments and data presented here is the mean.

Structure (SMILES): CN1CCN(c2ccc(Nc3c4ccccc4nc4ccccc34)cc2)CC1
- inhibition [1]: -3.1%
- inhibition [2]: 3.384%
- inhibition [3]: 56.4%

Structure (SMILES): CCN1CCCC1CNc1[nH]cnc2c3cc(Cl)ccc3nc1-2 (configuration not stated)
- inhibition [1]: 3.48%
- inhibition [2]: -0.006896%
- inhibition [3]: 18.2%

Structure (SMILES): C[n+]1c2ccccc2nc2ccc(NCCO)cc21
- inhibition [1]: -21.5%
- inhibition [2]: 4.233%
- inhibition [3]: 33.8%

Structure (SMILES): OC(CNCC1CCCO1)Cn1c2ccc(Cl)cc2c2cc(Cl)ccc21 (configuration not stated)
- inhibition [1]: -43.4%
- inhibition [2]: 3.62%
- inhibition [3]: -34.5%

Structure (SMILES): c1ccc(/C2=N/c3ccccc3/N=C(/c3ccccc3)c3ccccc32)cc1
- inhibition [1]: 5.88%
- inhibition [2]: 4.56%
- inhibition [3]: 41.7%

Structure (SMILES): COc1cc(C(=O)Nc2nc3c(cc4c5c(cccc53)CC4)s2)cc(OC)c1OC
- inhibition [1]: -22.3%
- inhibition [2]: 5.808%
- inhibition [3]: -1.82%

Structure (SMILES): O=C(CCc1ccccc1)c1ccccc1OCC(O)CN1CCCCC1 (configuration not stated)
- inhibition [1]: -34.8%
- inhibition [2]: -0.1506%
- inhibition [3]: 22.9%

Structure (SMILES): COc1cccc(O)c1CN1CCC2(CCCN(Cc3ccc(F)cc3)C2)C1 (configuration not stated)
- inhibition [1]: -15.6%
- inhibition [2]: 0.1358%
- inhibition [3]: -5.07%

Structure (SMILES): CCOC(=O)C1=C(C)N=c2sc(=Cc3ccccc3O)c(=O)n2C1c1ccc(OC)c2ccccc12 (configuration not stated)
- inhibition [1]: -23.7%
- inhibition [2]: 3.682%
- inhibition [3]: -4.7%

Structure (SMILES): CCOC(=O)C1=C(C)N=c2sc(=Cc3cc(Cl)ccc3O)c(=O)n2C1c1ccc(OC)cc1 (configuration not stated)
- inhibition [1]: -13%
- inhibition [2]: 5.932%
- inhibition [3]: -29.2%

Structure (SMILES): Cc1nc2ccccc2c(O)c1CC=C(Cl)Cl
- inhibition [1]: -3.75%
- inhibition [2]: 2.285%
- inhibition [3]: 6.46%

Structure (SMILES): COc1ccc2nc(C)cc(Nc3ccc(Cl)cc3)c2c1
- inhibition [1]: -15.3%
- inhibition [2]: 4.092%
- inhibition [3]: -17.3%

Structure (SMILES): CCC(C)NCC(O)(c1ccc(Cl)cc1)c1ccc(Cl)cc1 (configuration not stated)
- inhibition [1]: -7.82%
- inhibition [2]: 2.874%
- inhibition [3]: 25.7%

Structure (SMILES): Cn1c(=O)c2cc(C(=O)NCCCN3CCCCCC3)sc2c2ccccc21
- inhibition [1]: -16.3%
- inhibition [2]: 5.415%
- inhibition [3]: 20.7%

Structure (SMILES): COc1ccc(C(=O)NC(c2ccc(Cl)cc2Cl)c2cc(Cl)c3cccnc3c2O)cc1 (configuration not stated)
- inhibition [1]: -10.1%
- inhibition [2]: 1.805%
- inhibition [3]: -11.1%

Structure (SMILES): O=C(NC(c1ccccc1)c1ccc2cccnc2c1O)c1ccccc1 (configuration not stated)
- inhibition [1]: -22.7%
- inhibition [2]: 6.162%
- inhibition [3]: 5.16%

Structure (SMILES): O=C(CCc1ccco1)NC1CCN(CC2(c3ccc(Cl)cc3)CCC2)CC1
- inhibition [1]: -33.1%
- inhibition [2]: 1.599%
- inhibition [3]: 39.4%

Structure (SMILES): CC(=O)Nc1nnc(SCc2c(C)cc(C(C)(C)C)cc2C)s1
- inhibition [1]: 5.39%
- inhibition [2]: 4.957%
- inhibition [3]: 17.4%

Structure (SMILES): COc1ccc(C(=O)Nc2nonc2-c2ccc(OC)c(OC)c2)cc1Cl
- inhibition [1]: -18.2%
- inhibition [2]: 1.319%
- inhibition [3]: 36.3%

Structure (SMILES): COCCN(C(=O)Cc1cccs1)C(C(=O)NCc1ccc(OC)cc1)c1ccc(C(C)C)cc1 (configuration not stated)
- inhibition [1]: -5.87%
- inhibition [2]: 0.1558%
- inhibition [3]: 9.73%

Structure (SMILES): CN1CCN(c2c3c(c(C#N)c4nc5ccccc5n24)CCC3)CC1
- inhibition [1]: -10.7%
- inhibition [2]: 0.2959%
- inhibition [3]: 16.1%

Structure (SMILES): CCN(CC)CCNc1ccnc2cc3ccccc3cc12.O=P(O)(O)O
- inhibition [1]: -24%
- inhibition [2]: 2.138%
- inhibition [3]: 9.43%

Structure (SMILES): Cc1cc(Nc2cccc(F)c2)nc(NCc2ccccc2)n1
- inhibition [1]: -45.8%
- inhibition [2]: 4.533%
- inhibition [3]: 20.4%

Structure (SMILES): FC(F)(F)c1cccc(CNC2CCN(CCc3ccccc3)CC2)c1
- inhibition [1]: -31.1%
- inhibition [2]: 1.472%
- inhibition [3]: -0.872%

Structure (SMILES): CC(C)CCNCC(O)Cn1c2ccccc2c2ccccc21.Cl (configuration not stated)
- inhibition [1]: -12.9%
- inhibition [2]: 4.97%
- inhibition [3]: -10.1%

Structure (SMILES): CCOC(=O)c1cnc2c(C)cccc2c1Nc1ccc(C(C)=O)cc1
- inhibition [1]: -9.63%
- inhibition [2]: 1.277%
- inhibition [3]: 13%

Structure (SMILES): COc1cccc(-c2nn(C)c3sc(C(=O)NCCN4CCN(c5ccccc5F)CC4)cc23)c1
- inhibition [1]: -2.79%
- inhibition [2]: 2.067%
- inhibition [3]: 14.1%

Structure (SMILES): CNCCCNc1ccnc2cc(Cl)ccc12
- inhibition [1]: -3.53%
- inhibition [2]: 0.238%
- inhibition [3]: -17.2%

Structure (SMILES): O=C(Nc1ccc(N2CCCCC2)c(Cl)c1)c1ccc(Br)o1
- inhibition [1]: -35.3%
- inhibition [2]: 4.656%
- inhibition [3]: 41.2%

Structure (SMILES): COc1ccc(C(O)(CCC(C)C)C(CN2CCOCC2)c2ccc(Cl)cc2)cc1.Cl (configuration not stated)
- inhibition [1]: 6.32%
- inhibition [2]: 5.473%
- inhibition [3]: -0.282%

Structure (SMILES): CCCCCCn1c(=N)n(CC(O)COc2cccc(C)c2)c2ccccc21.Cl (configuration not stated)
- inhibition [1]: -17.6%
- inhibition [2]: 1.158%
- inhibition [3]: -52.7%

Structure (SMILES): CC(C)OCc1cc(CN2CCN(c3cccc(Cl)c3)CC2)c(O)c2ncccc12
- inhibition [1]: -27.4%
- inhibition [2]: 5.6%
- inhibition [3]: 10.1%

Structure (SMILES): O=C(Nc1nc(-c2ccccn2)cs1)c1ccccc1Br
- inhibition [1]: -22.2%
- inhibition [2]: 2.456%
- inhibition [3]: -29.6%

Structure (SMILES): Oc1ccc(C(=C(Cl)Cl)c2ccc(O)cc2)cc1
- inhibition [1]: -25.3%
- inhibition [2]: 3.378%
- inhibition [3]: 5.51%

Structure (SMILES): CCOc1ccc2c(c1)CN(Cc1ccc(Cl)cc1)CO2
- inhibition [1]: -18.1%
- inhibition [2]: 5.14%
- inhibition [3]: 18.9%

Structure (SMILES): CCOc1ccccc1CNC(=O)C1c2ccccc2C(=O)N(CC(C)C)C1c1cccs1 (configuration not stated)
- inhibition [1]: -3.09%
- inhibition [2]: 3.43%
- inhibition [3]: 15.7%

Structure (SMILES): CC(C)(C)c1ccc2c(c1)CN(Cc1ccc(Cl)cc1)CO2
- inhibition [1]: 6.43%
- inhibition [2]: 3.358%
- inhibition [3]: -12.2%

Structure (SMILES): Cc1cc(=O)oc2c1ccc1oc(C(=O)c3ccccc3)c(C)c12
- inhibition [1]: -19.6%
- inhibition [2]: 6.058%
- inhibition [3]: -11.5%

Structure (SMILES): Cl.OC(CNCc1ccccc1)Cn1c2ccccc2c2ccccc21 (configuration not stated)
- inhibition [1]: 11.4%
- inhibition [2]: 3.967%
- inhibition [3]: -10.2%

Structure (SMILES): Cc1ccc(F)cc1NC(=O)c1cc(Cl)ccc1Nc1ccccc1
- inhibition [1]: -12.6%
- inhibition [2]: 6.256%
- inhibition [3]: 43.2%

Structure (SMILES): Oc1c2c(nc3cc(-c4ccccc4)nn13)CCCC2
- inhibition [1]: -27.5%
- inhibition [2]: 4.402%
- inhibition [3]: 1.37%

Structure (SMILES): COc1ccc(C)c2sc(N(Cc3cccnc3)C(=O)c3ccc(C#N)cc3)nc12
- inhibition [1]: -37.8%
- inhibition [2]: 2.145%
- inhibition [3]: -18.7%

Structure (SMILES): CCCN(CCC)CCCNC(=O)c1cc2c(-c3ccc(OC)c(OC)c3)nn(C)c2s1
- inhibition [1]: -7.86%
- inhibition [2]: 5.504%
- inhibition [3]: -20.2%

Structure (SMILES): CN1c2ccccc2N(C)C1c1ccc2c(c1)OCO2
- inhibition [1]: -33.5%
- inhibition [2]: 3.083%
- inhibition [3]: 8.56%

Structure (SMILES): CN(C)c1ccc(N=Cc2ccc(N3CCOCC3)cc2)cc1
- inhibition [1]: -21.3%
- inhibition [2]: 4.978%
- inhibition [3]: 34.2%

Structure (SMILES): CCCCOc1ccc(C(=O)Nc2cc(C)on2)cc1
- inhibition [1]: -26.5%
- inhibition [2]: 1.333%
- inhibition [3]: 47.5%

Structure (SMILES): CC1CCCCN1CCCNC(=O)c1ccc2c(c1)sc1nc(-c3ccc(F)cc3)cn12 (configuration not stated)
- inhibition [1]: -12.6%
- inhibition [2]: 0.9156%
- inhibition [3]: -15.9%

Structure (SMILES): CCOC(=O)c1cnc2c(C)cc(C)cc2c1Nc1ccc(OC)c(OC)c1
- inhibition [1]: -14.2%
- inhibition [2]: 1.422%
- inhibition [3]: 25.9%

Structure (SMILES): CC(C)(C)c1ccc(C2CC3=Nc4ccccc4N(C(=O)c4ccccc4Cl)C(c4ccc(F)cc4)C3=C(O)C2)cc1 (configuration not stated)
- inhibition [1]: -44.4%
- inhibition [2]: 4.566%
- inhibition [3]: -39.9%

Source: ChEMBL document CHEMBL3301451, “MMV Malaria Box gametocyte functional viability assay screening”
